One data set has as its system isolated hearts of rats. The data set is described as follows: Effects on the cardiac contractility of isolated hearts of rats (Langendorff perfusion). Also noted: species or system rat. The following applies: 0.1 mmol/L; for heart dysrhythmia / +dp/dtmax (maximum value of left ventricular pressure increase) / Heart rate / LVEDP (left ventricular diastolic pressure) / LVSP (left ventricular systolic pressure) / −dp/dtmax (maximum value of left ventricular pressure decrease): isolated rat heart; for +dp/dtmax (maximum value of left ventricular pressure increase) / Heart rate / LVEDP (left ventricular diastolic pressure) / LVSP (left ventricular systolic pressure) / −dp/dtmax (maximum value of left ventricular pressure decrease): after administration. The protocol: Intraperitoneal injection of 1.2 g/kg urethane is carried out on rats and the hearts are collected. After the hearts are rinsed and cut in 100% oxygen saturated physiological saline at 0° C., they are connected to modified Langendorff heart perfusion equipments to couduct retrogressive perfusion via the aorta. The perfusate (in mmol/L) is NaCl 117, KCl 5.7, CaCl2 1.8, NaHCO3 4.4, NaH2PO4 1.5, MgCl2 1.7, HEPES 20, Glucose 11, Creatine 10, Taurine 20, and NaOH is used to adjust the pH value to 7.3. The probe of the pressure receptor is inserted into the left ventricle via the left auricle, and BioAmp amplifier is used to record the left ventricular pressure, and the electrocardiogram is measured at the same time.

A further data set has as its system normal rats. In words: Effects on heart functions and hemodynamics of normal rats, intravenous administration. Format: in vivo, rat. To be noted: for LVEDP / LVSP / +dp/dtmax / −dp/dtmax: normal rats, within one minute after administration, n = 10; for +dp/dtmax / −dp/dtmax: in mmHg/s (unit assumed). The protocol:
After the rats are paralysed with 20% ethyl urethane (urethane) (1 g/kg) and fixed on a thermostatical operation table on their backs, needle-electrodes for electrocardiogram are subcutaneously inserted from their extremities and the lead II […] (ECG) and the heart rate (HR) are measured by inputting into the multiplying channel device. The right common carotid artery is isolated from the inner side of sternocleidomastoid muscle after the […] and temperature (37° C.) become stable, and the right common carotid artery is ligated at its head end and left ventricular cannulation is carried out. It is connected with the polygraph via a pressure transducer to measure the heart function indexes of left ventricle, in the meantime, the right femoral vein is isolated and venous cannulation is carried out for the intravenous administration, and the non-inserted end is connected to a syringe that is filled with 40 IU/mL heparin physiological saline, the multi-channel physiological signal acquisition and processing system is used to record the data. After the measured indexes become stable, the data at one minute before the drug administration are recorded as the blank control, and Liguzinediol is dissolved in physiological saline and then use 5, 10 and 20 mg/kg respectively as the low, mediate and high dosage groups, and the results within one minute after the intravenous administration are shown in Table 2. The heart rate aberration that is induced by Liguzinediol is not found in the three dosage groups after administration.

The values below come from patent publication US8158630B2, “Application of 2,5 -dihydroxymethyl-3,6-dimethyl pyrazine and its derivates in pharmacy” (Nanjing University of Chinese Medicine, priority 2010, dated 2012).

`CC(=O)OCc1nc(C)c(COC(C)=O)nc1C` [Compound 1, 2,5-diacetoxymethyl-3,6-dimethyl pyrazine]: in the data set on isolated hearts of rats, the “cardiac contractility of isolated hearts of rats” value was “significantly increase”, the heart dysrhythmia result is recorded as “no heart dysrhythmia is found”, the “+dp/dtmax (maximum value of left ventricular pressure increase)” value is on record as 831.9 ± 268.2 and the Heart rate is listed as 191.6 ± 58.0^Δ. In addition, in the data set with isolated hearts of rats, the “LVEDP (left ventricular diastolic pressure)” value was −14.4 ± 7.2, the “LVSP (left ventricular systolic pressure)” value was 26.1 ± 12.5 and the “−dp/dtmax (maximum value of left ventricular pressure decrease)” value is reported as −884.9 ± 347.0.

Consider `Cc1nc(CO)c(C)nc1CO` [Compound 2, 2,5-dihydroxymethyl-3,6-dimethyl pyrazine], for which, in the data set with normal rats (5 mg/kg i.v.), the LVEDP turned out to be 7.9 ± 6.3, the LVSP is listed as 132.7 ± 9.1, the “+dp/dtmax” value is 12027 ± 1388 and the “−dp/dtmax” value is −10238 ± 1247. In the data set on normal rats (10 mg/kg i.v.), the LVEDP is listed as 6.9 ± 6.1, the LVSP came out at 135.7 ± 10.9, the “+dp/dtmax” value was determined as 11484 ± 1410 and the “−dp/dtmax” value is −9667 ± 670. In addition, in the data set on normal rats (20 mg/kg i.v.), the LVEDP was found to be 6.3 ± 4.8, the LVSP stood at 139.7 ± 4.6, the “+dp/dtmax” value is reported as 12347 ± 1030 and the “−dp/dtmax” value was −9964 ± 1045. In addition, in the data set on normal rats (rats, 5, 10 and 20 mg/kg i.v.), the “left ventricular contraction and diastolic function of rat heart” value was “significantly increase the left ventricular contraction and improve the diastolic function”. For the same molecule, in the data set on normal rats (rats, 5, 10 and 20 mg/kg i.v., after administration), the heart rate aberration entry is on record as “not found”. In the data set with isolated hearts of rats, the “cardiac contractility of isolated hearts of rats” value is listed as “significantly increase”, the heart dysrhythmia entry is on record as “no heart dysrhythmia is found”, the “+dp/dtmax (maximum value of left ventricular pressure increase)” value came to 790.3 ± 251.6 and the Heart rate is on record as 154.4 ± 28.8^Δ. In the data set on isolated hearts of rats, the “LVEDP (left ventricular diastolic pressure)” value is −13.0 ± 2.3, the “LVSP (left ventricular systolic pressure)” value worked out at 26.9 ± 5.9 and the “−dp/dtmax (maximum value of left ventricular pressure decrease)” value is recorded as −763.5 ± 188.0.
